≈ marks a conversion by molar mass, not a printed value.
Columns and labels:
Escherichia coli [1] = test: Antibacterial activity against Escherichia coli JM109 after 24 hrs by micro broth dilution method; assay type: functional; settings: JM109, 24 h
Pseudomonas aeruginosa = test: Antibacterial activity against Pseudomonas aeruginosa after 24 hrs by micro broth dilution method; assay type: functional
Cyberlindnera jadinii = test: Antifungal activity against Candida utilis after 24 hrs by two fold serial dilution based spectrophotometric analysis; assay type: functional; settings: Williopsis jadinii
Bacillus subtilis = test: Antibacterial activity against Bacillus subtilis after 24 hrs by micro broth dilution method; assay type: functional
Aspergillus flavus = test: Antifungal activity against Aspergillus flavus after 24 hrs by two fold serial dilution based spectrophotometric analysis; assay type: functional
Micrococcus luteus = test: Antibacterial activity against Micrococcus luteus ATCC 4698 after 24 hrs by micro broth dilution method; assay type: functional; settings: NCTC 2665, 24 h
Salmonella typhi = test: Antibacterial activity against Bacillus typhi after 24 hrs by micro broth dilution method; assay type: functional, Salmonella enterica subsp. enterica serovar Typhi; settings: Salmonella enterica
Saccharomyces cerevisiae = test: Antifungal activity against Beer yeast after 24 hrs by two fold serial dilution based spectrophotometric analysis; assay type: functional
Bacillus = test: Antibacterial activity against Bacillus proteus ATCC 13315 after 24 hrs by micro broth dilution method; assay type: functional; settings: ATCC 13315, 24 h
Escherichia coli [2] = test: Antibacterial activity against Escherichia coli DH52 after 24 hrs by micro broth dilution method; assay type: functional; settings: DH52, 24 h
Staphylococcus aureus [3] = test: Antibacterial activity against methicillin-resistant Staphylococcus aureus N315 after 24 hrs by micro broth dilution method; assay type: functional; settings: N315, 24 h
Candida albicans = test: Antifungal activity against Candida albicans after 24 hrs by two fold serial dilution based spectrophotometric analysis; assay type: functional
Pichia norvegensis = test: Antifungal activity against Candida mycoderma after 24 hrs by two fold serial dilution based spectrophotometric analysis; assay type: functional
Shigella dysenteriae = test: Antibacterial activity against Shigella dysenteriae after 24 hrs by micro broth dilution method; assay type: functional
Staphylococcus aureus [4] = test: Antibacterial activity against Staphylococcus aureus ATCC 25923 after 24 hrs by micro broth dilution method; assay type: functional; settings: ATCC 25923, 24 h

Row | Compound | MIC (Escherichia coli [1]) [µg/mL] | MIC (Pseudomonas aeruginosa) [µg/mL] | MIC (Cyberlindnera jadinii) [µg/mL] | MIC (Bacillus subtilis) [µg/mL] | MIC (Aspergillus flavus) [µg/mL] | MIC (Micrococcus luteus) [µg/mL] | MIC (Salmonella typhi) [µg/mL] | MIC (Saccharomyces cerevisiae) [µg/mL] | MIC (Bacillus) [µg/mL] | MIC (Escherichia coli [2]) [µg/mL] | MIC (Staphylococcus aureus [3]) [µg/mL] | MIC (Candida albicans) [µg/mL] | MIC (Pichia norvegensis) [µg/mL] | MIC (Shigella dysenteriae) [µg/mL] | MIC (Staphylococcus aureus [4]) [µg/mL]
1 | CCOc1ccc2c(c1)sc1nc(-c3ccccc3)c(COCCCCCCCCCCBr)n12 | > 512 | 16 (≈ 29.4 µM) | > 512 | > 512 | 512 (≈ 942 µM) | > 512 | 256 (≈ 471 µM) | > 512 | > 512 | > 512 | > 512 | > 512 | > 512 | > 512 | > 512
2 | CCOc1ccc2c(c1)sc1nc(-c3ccccc3)c(COCCCCCCCCCCn3cncn3)n12 | 64 (≈ 120 µM) | 8 (≈ 15 µM) | > 512 | 32 (≈ 60.2 µM) | > 512 | 64 (≈ 120 µM) | 128 (≈ 241 µM) | 128 (≈ 241 µM) | 64 (≈ 120 µM) | 32 (≈ 60.2 µM) | 64 (≈ 120 µM) | > 512 | > 512 | 64 (≈ 120 µM) | 8 (≈ 15 µM)
3 | CCOc1ccc2c(c1)sc1nc(-c3ccccc3)c(COCCCCCBr)n12 | > 512 | > 512 | > 512 | 128 (≈ 270 µM) | 64 (≈ 135 µM) | > 512 | > 512 | > 512 | 128 (≈ 270 µM) | 128 (≈ 270 µM) | > 512 | 16 (≈ 33.8 µM) | 128 (≈ 270 µM) | 128 (≈ 270 µM) | > 512
4 | CCOc1ccc2c(c1)sc1nc(-c3ccccc3)c(COCCCn3cnc([N+](=O)[O-])c3)n12 | 256 (≈ 536 µM) | 512 (≈ 1070 µM) | 128 (≈ 268 µM) | 256 (≈ 536 µM) | 32 (≈ 67 µM) | 256 (≈ 536 µM) | 256 (≈ 536 µM) | > 512 | 512 (≈ 1070 µM) | 512 (≈ 1070 µM) | 512 (≈ 1070 µM) | 16 (≈ 33.5 µM) | 32 (≈ 67 µM) | 256 (≈ 536 µM) | 128 (≈ 268 µM)
5 | CCOc1ccc2c(c1)sc1nc(-c3ccccc3)c(COCCCCCCCCCCn3c([N+](=O)[O-])cnc3C)n12 | 512 (≈ 868 µM) | 128 (≈ 217 µM) | 256 (≈ 434 µM) | 32 (≈ 54.3 µM) | 512 (≈ 868 µM) | 512 (≈ 868 µM) | 256 (≈ 434 µM) | 64 (≈ 109 µM) | 256 (≈ 434 µM) | 256 (≈ 434 µM) | 128 (≈ 217 µM) | 128 (≈ 217 µM) | 256 (≈ 434 µM) | 16 (≈ 27.1 µM) | 128 (≈ 217 µM)
6 | CCOc1ccc2c(c1)sc1nc(-c3ccccc3)c(COCCCCCn3cnc([N+](=O)[O-])c3)n12 | > 512 | 512 (≈ 1010 µM) | 128 (≈ 253 µM) | 256 (≈ 506 µM) | 256 (≈ 506 µM) | 512 (≈ 1010 µM) | 256 (≈ 506 µM) | 128 (≈ 253 µM) | 512 (≈ 1010 µM) | 128 (≈ 253 µM) | > 512 | 128 (≈ 253 µM) | 256 (≈ 506 µM) | 16 (≈ 31.6 µM) | 128 (≈ 253 µM)
7 | CCOc1ccc2c(c1)sc1nc(-c3ccccc3)c(COCCCn3cncn3)n12 | 256 (≈ 590 µM) | > 512 | 64 (≈ 148 µM) | > 512 | 64 (≈ 148 µM) | > 512 | > 512 | 128 (≈ 295 µM) | > 512 | > 512 | > 512 | 16 (≈ 36.9 µM) | 64 (≈ 148 µM) | > 512 | > 512
8 | Cc1ncc([N+](=O)[O-])n1CCCCCOCc1c(-c2ccccc2)nc2sc3ccccc3n12 | 2 (≈ 4.21 µM) | 8 (≈ 16.8 µM) | 128 (≈ 269 µM) | 16 (≈ 33.6 µM) | 16 (≈ 33.6 µM) | 64 (≈ 135 µM) | 32 (≈ 67.3 µM) | > 512 | 16 (≈ 33.6 µM) | 8 (≈ 16.8 µM) | 8 (≈ 16.8 µM) | 8 (≈ 16.8 µM) | 64 (≈ 135 µM) | 16 (≈ 33.6 µM) | 4 (≈ 8.41 µM)
9 | c1ccc(-c2nc3sc4ccccc4n3c2COCCCCCn2cncn2)cc1 | 16 (≈ 38.3 µM) | 32 (≈ 76.6 µM) | 64 (≈ 153 µM) | 32 (≈ 76.6 µM) | 16 (≈ 38.3 µM) | 256 (≈ 613 µM) | 32 (≈ 76.6 µM) | 8 (≈ 19.2 µM) | 32 (≈ 76.6 µM) | 32 (≈ 76.6 µM) | 16 (≈ 38.3 µM) | 4 (≈ 9.58 µM) | 8 (≈ 19.2 µM) | 8 (≈ 19.2 µM) | 16 (≈ 38.3 µM)
10 | O=[N+]([O-])c1cn(CCCCCCCCCCOCc2c(-c3ccccc3)nc3sc4ccccc4n23)cn1 | 64 (≈ 120 µM) | 64 (≈ 120 µM) | 256 (≈ 481 µM) | 64 (≈ 120 µM) | 128 (≈ 241 µM) | 128 (≈ 241 µM) | 64 (≈ 120 µM) | 8 (≈ 15 µM) | 32 (≈ 60.2 µM) | 16 (≈ 30.1 µM) | 16 (≈ 30.1 µM) | 64 (≈ 120 µM) | 64 (≈ 120 µM) | 16 (≈ 30.1 µM) | 32 (≈ 60.2 µM)
11 | CCOc1ccc2c(c1)sc1nc(-c3ccccc3)c(COCCCCCn3cncn3)n12 | 128 (≈ 277 µM) | > 512 | 256 (≈ 555 µM) | > 512 | > 512 | > 512 | > 512 | > 512 | > 512 | > 512 | > 512 | > 512 | 256 (≈ 555 µM) | 256 (≈ 555 µM) | > 512

Source: ChEMBL document CHEMBL4118281, “Azoalkyl ether imidazo[2,1-b]benzothiazoles as potentially antimicrobial agents with novel structural skeleton” (2018)
